Data as given in the supplement of paper PMC10883282.
± gives the standard deviation of the averaged measurements.

Experiments:
Test in all cases: relative viability vs DMSO control (72 h) (fraction); higher = more viable cells
RD-ES = system: RD-ES
Method in brief: (§1)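 Sarcoma cell lines were grown in 384-well plates seeded toward 80–90% confluence and exposed 24 h later to serially diluted compound. After 72 h at 37 °C and 5% CO2, with 0.1% DMSO vehicle and a 5 µM positive control on the plates, ATPLite was read. Relative viability, given as percent growth averaged over up to triplicate wells, was rescaled so that 1 is full and 0 is none.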

SYO-1 = system: SYO-1
Method in brief: as §1

SK-ES-1 = system: SK-ES-1
Method in brief: as §1

G401 = system: G401
Method in brief: as §1

VA-ES-BJ = system: VA-ES-BJ
Method in brief: as §1

KHOS-240S = system: KHOS-240S
Method in brief: as §1

HT1080 = system: HT1080
Method in brief: as §1

RD = system: RD
Method in brief: as §1

SW982 = system: SW982
Method in brief: as §1

SW1353 = system: SW1353
Method in brief: as §1

SK-LMS-1 = system: SK-LMS-1
Method in brief: as §1

MES-SA = system: MES-SA
Method in brief: as §1

COc1cc2c(Oc3ccc4[nH]c(C)cc4c3F)ccnc2cc1OCC1(N)CC1 [Anlotinib]
Conditions	relative viability
G401, 0.00017 µM	0.964 ± 0.024
G401, 0.00051 µM	0.986 ± 0.046
G401, 0.00152 µM	1.01 ± 0.041
G401, 0.00457 µM	0.988 ± 0.023
G401, 0.01372 µM	0.976 ± 0.032
G401, 0.04115 µM	0.982 ± 0.041
G401, 0.1235 µM	0.955 ± 0.037
G401, 0.3704 µM	0.89 ± 0.033
G401, 1.111 µM	0.773 ± 0.0087
G401, 3.333 µM	0.445 ± 0.011
G401, 10 µM	0.163 ± 0.0031
HT1080, 0.00017 µM	1.023 ± 0.0019
HT1080, 0.00051 µM	1.03 ± 0.019
HT1080, 0.00152 µM	1.04 ± 0.0075
HT1080, 0.00457 µM	1.03 ± 0.03
HT1080, 0.01372 µM	1.05 ± 0.046
HT1080, 0.04115 µM	1.05 ± 0.036
HT1080, 0.1235 µM	1.07 ± 0.012
HT1080, 0.3704 µM	1.08 ± 0.031
HT1080, 1.111 µM	1.1 ± 0.051
HT1080, 3.333 µM	1.02 ± 0.064
HT1080, 10 µM	0.0879 ± 0.01
KHOS-240S, 0.00017 µM	1.06 ± 0.025
KHOS-240S, 0.00051 µM	1.049 ± 0.0056
KHOS-240S, 0.00152 µM	1.04 ± 0.015
KHOS-240S, 0.00457 µM	1.06 ± 0.018
KHOS-240S, 0.01372 µM	1.05 ± 0.035
KHOS-240S, 0.04115 µM	1.04 ± 0.016
KHOS-240S, 0.1235 µM	1.03 ± 0.021
KHOS-240S, 0.3704 µM	0.993 ± 0.052
KHOS-240S, 1.111 µM	0.892 ± 0.018
KHOS-240S, 3.333 µM	0.464 ± 0.062
KHOS-240S, 10 µM	0.122 ± 0.0076
MES-SA, 0.00017 µM	0.921 ± 0.014
MES-SA, 0.00051 µM	0.9145 ± 0.004
MES-SA, 0.00152 µM	0.918 ± 0.015
MES-SA, 0.00457 µM	0.9154 ± 0.0067
MES-SA, 0.01372 µM	0.947 ± 0.016
MES-SA, 0.04115 µM	0.949 ± 0.01
MES-SA, 0.1235 µM	0.924 ± 0.038
MES-SA, 0.3704 µM	0.951 ± 0.039
MES-SA, 1.111 µM	0.841 ± 0.028
MES-SA, 3.333 µM	0.271 ± 0.0097
MES-SA, 10 µM	0.115 ± 0.0092
RD, 0.00017 µM	1.06 ± 0.051
RD, 0.00051 µM	1.06 ± 0.042
RD, 0.00152 µM	1.08 ± 0.035
RD, 0.00457 µM	1.07 ± 0.076
RD, 0.01372 µM	1.06 ± 0.06
RD, 0.04115 µM	1.09 ± 0.049
RD, 0.1235 µM	1.07 ± 0.066
RD, 0.3704 µM	1.04 ± 0.053
RD, 1.111 µM	0.946 ± 0.045
RD, 3.333 µM	0.594 ± 0.025
RD, 10 µM	0.217 ± 0.021
RD-ES, 0.00017 µM	0.9225 ± 0.0047
RD-ES, 0.00051 µM	0.948 ± 0.017
RD-ES, 0.00152 µM	0.969 ± 0.017
RD-ES, 0.00457 µM	0.965 ± 0.017
RD-ES, 0.01372 µM	0.98 ± 0.013
RD-ES, 0.04115 µM	0.992 ± 0.048
RD-ES, 0.1235 µM	0.977 ± 0.028
RD-ES, 0.3704 µM	0.9545 ± 0.0092
RD-ES, 1.111 µM	0.925 ± 0.025
RD-ES, 3.333 µM	0.594 ± 0.062
RD-ES, 10 µM	0.0858 ± 0.0061
SK-ES-1, 0.00017 µM	1.05 ± 0.036
SK-ES-1, 0.00051 µM	1.053 ± 0.0094
SK-ES-1, 0.00152 µM	1.04 ± 0.02
SK-ES-1, 0.00457 µM	1.03 ± 0.074
SK-ES-1, 0.01372 µM	1.07 ± 0.025
SK-ES-1, 0.04115 µM	1.09 ± 0.041
SK-ES-1, 0.1235 µM	1.09 ± 0.044
SK-ES-1, 0.3704 µM	1.07 ± 0.02
SK-ES-1, 1.111 µM	0.958 ± 0.036
SK-ES-1, 3.333 µM	0.104 ± 0.0054
SK-ES-1, 10 µM	0.0396 ± 0.00099
SK-LMS-1, 0.00017 µM	1.08 ± 0.038
SK-LMS-1, 0.00051 µM	1.06 ± 0.039
SK-LMS-1, 0.00152 µM	1.08 ± 0.034
SK-LMS-1, 0.00457 µM	1.05 ± 0.015
SK-LMS-1, 0.01372 µM	1.06 ± 0.034
SK-LMS-1, 0.04115 µM	1.05 ± 0.051
SK-LMS-1, 0.1235 µM	1.04 ± 0.014
SK-LMS-1, 0.3704 µM	1.03 ± 0.032
SK-LMS-1, 1.111 µM	0.85 ± 0.034
SK-LMS-1, 3.333 µM	0.416 ± 0.017
SK-LMS-1, 10 µM	0.0427 ± 0.0027
SW982, 0.00017 µM	1.034 ± 0.0051
SW982, 0.00051 µM	1.04 ± 0.05
SW982, 0.00152 µM	1.01 ± 0.028
SW982, 0.00457 µM	1.05 ± 0.04
SW982, 0.01372 µM	1.06 ± 0.032
SW982, 0.04115 µM	1.06 ± 0.018
SW982, 0.1235 µM	1.05 ± 0.025
SW982, 0.3704 µM	0.997 ± 0.021
SW982, 1.111 µM	0.956 ± 0.024
SW982, 3.333 µM	0.544 ± 0.021
SW982, 10 µM	0.206 ± 0.024
SW1353, 0.00017 µM	0.9631 ± 0.0076
SW1353, 0.00051 µM	0.99 ± 0.046
SW1353, 0.00152 µM	0.985 ± 0.022
SW1353, 0.00457 µM	0.99 ± 0.042
SW1353, 0.01372 µM	0.95 ± 0.052
SW1353, 0.04115 µM	0.976 ± 0.029
SW1353, 0.1235 µM	0.9632 ± 0.0092
SW1353, 0.3704 µM	0.937 ± 0.028
SW1353, 1.111 µM	0.88 ± 0.026
SW1353, 3.333 µM	0.551 ± 0.021
SW1353, 10 µM	0.254 ± 0.018
SYO-1, 0.00017 µM	0.921 ± 0.013
SYO-1, 0.00051 µM	0.923 ± 0.012
SYO-1, 0.00152 µM	0.92 ± 0.037
SYO-1, 0.00457 µM	0.884 ± 0.021
SYO-1, 0.01372 µM	0.856 ± 0.022
SYO-1, 0.04115 µM	0.817 ± 0.04
SYO-1, 0.1235 µM	0.679 ± 0.024
SYO-1, 0.3704 µM	0.529 ± 0.019
SYO-1, 1.111 µM	0.46 ± 0.0095
SYO-1, 3.333 µM	0.328 ± 0.019
SYO-1, 10 µM	0.115 ± 0.0066
VA-ES-BJ, 0.00017 µM	0.975 ± 0.058
VA-ES-BJ, 0.00051 µM	0.993 ± 0.055
VA-ES-BJ, 0.00152 µM	0.987 ± 0.031
VA-ES-BJ, 0.00457 µM	0.979 ± 0.047
VA-ES-BJ, 0.01372 µM	0.977 ± 0.047
VA-ES-BJ, 0.04115 µM	0.978 ± 0.032
VA-ES-BJ, 0.1235 µM	0.997 ± 0.027
VA-ES-BJ, 0.3704 µM	1.022 ± 0.01
VA-ES-BJ, 1.111 µM	0.983 ± 0.046
VA-ES-BJ, 3.333 µM	0.62 ± 0.0081
VA-ES-BJ, 10 µM	0.505 ± 0.044
